Each block holds one molecule with its values, some of them ahead of it. Active and inactive are the calls of the source.
Tests used:
Type in all cases: functional
[1] = biological target: T1, Kappa-type opioid receptor (Homo sapiens, UniProt P41145); assay: SAR analysis of small molecule agonists of the kappa opioid receptor via a luminescent beta-arrestin assay - Set 3. [Related pubchem assays (depositor defined):AID1777, AID1785, AID1786, AID1966, AID2133, AID2136, AID2284, AID2500]
[2] = biological target: Intestinal-type alkaline phosphatase (Homo sapiens, UniProt P09923); assay: inhibition of human intestinal alkaline phosphatase – biochemical, dose response (AID 488876)
[3] = biological target: Intestinal-type alkaline phosphatase (Mus musculus, UniProt P24822); assay: PubChem AID 488785
[4] = biological target: T2, Alkaline phosphatase, tissue-nonspecific isozyme (Homo sapiens, UniProt P05186); assay: TNAP enzyme inhibition by screening hits, dose response, selectivity assay for mouse IAP inhibitor project, biochemical, human TNAP, uHTS hits (AID 488906)
T2 sequence (P05186 whole entry): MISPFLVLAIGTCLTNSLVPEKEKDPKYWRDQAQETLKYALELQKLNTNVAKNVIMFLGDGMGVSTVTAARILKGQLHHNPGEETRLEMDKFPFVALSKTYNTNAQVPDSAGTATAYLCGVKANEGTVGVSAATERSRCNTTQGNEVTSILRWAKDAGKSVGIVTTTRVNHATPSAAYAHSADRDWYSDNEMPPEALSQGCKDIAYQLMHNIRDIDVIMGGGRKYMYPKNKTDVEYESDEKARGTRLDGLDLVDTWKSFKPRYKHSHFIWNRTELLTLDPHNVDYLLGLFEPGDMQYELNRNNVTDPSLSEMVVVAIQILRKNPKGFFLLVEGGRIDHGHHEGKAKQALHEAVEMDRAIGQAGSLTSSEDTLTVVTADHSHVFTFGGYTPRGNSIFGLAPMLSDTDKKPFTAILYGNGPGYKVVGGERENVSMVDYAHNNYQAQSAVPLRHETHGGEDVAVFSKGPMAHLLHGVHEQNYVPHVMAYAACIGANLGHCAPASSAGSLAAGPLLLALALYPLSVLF

[5] = biological target: T3, Sphingosine 1-phosphate receptor 4 (Homo sapiens, UniProt O95977); assay: Fluorescence dose response cell-based high throughput screening assay for agonists of the Sphingosine 1-Phosphate Receptor 4 (S1P4). [Related pubchem assays: 1509 (Primary screen.), 1523 (Confirmation screen in triplicates.)]
T3 sequence (O95977 whole entry): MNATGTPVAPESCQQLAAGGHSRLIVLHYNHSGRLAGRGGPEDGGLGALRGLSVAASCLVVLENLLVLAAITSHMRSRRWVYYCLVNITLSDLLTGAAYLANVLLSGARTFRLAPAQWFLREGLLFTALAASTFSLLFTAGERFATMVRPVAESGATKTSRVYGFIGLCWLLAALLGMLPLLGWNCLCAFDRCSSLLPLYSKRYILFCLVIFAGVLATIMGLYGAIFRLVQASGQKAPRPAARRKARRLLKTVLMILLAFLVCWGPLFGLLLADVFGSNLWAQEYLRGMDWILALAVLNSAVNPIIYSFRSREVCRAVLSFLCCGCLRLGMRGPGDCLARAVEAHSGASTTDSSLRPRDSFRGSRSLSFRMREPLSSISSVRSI

[6] = biological target: Sphingosine 1-phosphate receptor 1 (Homo sapiens, UniProt P21453); assay: Fluorescence-based counterscreen assay for S1P4 agonists: Cell-based dose response high throughput screening assay to identify agonists of the Sphingosine 1-Phosphate Receptor 1 (S1P1). [Related pubchem assays (depositor defined):AID1509, AID1523, AID1801, AID463107, AID463118, AID463119, AID463122, AID463123, AID463129, AID463225, AID504400, AID504460]
Mu-type opioid receptor [7] = biological target: T4, Mu-type opioid receptor (Homo sapiens, UniProt P35372); assay: mu opioid receptor activators, image-based, SAR follow-up (AID 2352)
[8] = biological target: T1, Kappa-type opioid receptor; assay: kappa opioid receptor blockers, image-based, SAR follow-up (AID 2348)
[9] = biological target: T1, Kappa-type opioid receptor; assay: SAR analysis of small molecule agonists of the kappa opioid receptor via a luminescent beta-arrestin assay. [Related pubchem assays (depositor defined):AID1777, AID1786, AID1966, AID2133, AID2136, AID2348, AID2352, AID2357, AID2359, AID2370, AID2420, AID2478, AID2491, AID2492, AID2493, AID2497, AID2498, AID2500, AID449737, AID488822, AID488842]
Mu-type opioid receptor [10] = biological target: T4, Mu-type opioid receptor; assay: mu opioid receptor blockers – image-based, SAR follow-up (AID 2420);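 further: compounds added before stimulation of receptor with agonist DAMGO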
[11] = biological target: T5, Delta-type opioid receptor (Homo sapiens, UniProt P41143); assay: DOR agonists, SAR follow-up, image-based (AID 2370)
[12] = biological target: T5, Delta-type opioid receptor; assay: delta opioid receptor blockers – image-based, SAR follow-up (AID 2357)
[13] = biological target: T1, Kappa-type opioid receptor; assay: kappa opioid receptor activation potency – imaging, image-based, SAR follow-up (AID 2359)

T1 sequence (P41145 whole entry): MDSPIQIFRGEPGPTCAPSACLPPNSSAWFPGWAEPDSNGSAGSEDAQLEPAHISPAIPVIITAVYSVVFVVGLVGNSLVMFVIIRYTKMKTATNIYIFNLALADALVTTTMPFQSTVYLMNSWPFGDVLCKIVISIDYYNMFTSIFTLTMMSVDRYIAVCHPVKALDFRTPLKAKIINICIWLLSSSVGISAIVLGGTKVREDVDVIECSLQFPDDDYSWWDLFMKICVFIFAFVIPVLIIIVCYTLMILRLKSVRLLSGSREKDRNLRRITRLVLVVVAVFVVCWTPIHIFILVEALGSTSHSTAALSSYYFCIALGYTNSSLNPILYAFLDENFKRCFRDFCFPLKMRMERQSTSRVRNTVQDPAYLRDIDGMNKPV
T5 sequence (P41143 whole entry): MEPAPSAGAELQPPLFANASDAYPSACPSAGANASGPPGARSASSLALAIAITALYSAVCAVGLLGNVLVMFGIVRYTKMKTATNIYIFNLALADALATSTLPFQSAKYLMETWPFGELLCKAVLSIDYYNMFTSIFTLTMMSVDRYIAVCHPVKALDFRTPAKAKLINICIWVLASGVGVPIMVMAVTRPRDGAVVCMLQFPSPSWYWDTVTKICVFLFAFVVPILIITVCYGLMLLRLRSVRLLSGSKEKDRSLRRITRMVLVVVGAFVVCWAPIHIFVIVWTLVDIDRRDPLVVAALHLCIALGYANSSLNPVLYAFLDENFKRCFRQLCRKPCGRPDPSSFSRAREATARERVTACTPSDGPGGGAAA
T4 sequence (P35372 whole entry): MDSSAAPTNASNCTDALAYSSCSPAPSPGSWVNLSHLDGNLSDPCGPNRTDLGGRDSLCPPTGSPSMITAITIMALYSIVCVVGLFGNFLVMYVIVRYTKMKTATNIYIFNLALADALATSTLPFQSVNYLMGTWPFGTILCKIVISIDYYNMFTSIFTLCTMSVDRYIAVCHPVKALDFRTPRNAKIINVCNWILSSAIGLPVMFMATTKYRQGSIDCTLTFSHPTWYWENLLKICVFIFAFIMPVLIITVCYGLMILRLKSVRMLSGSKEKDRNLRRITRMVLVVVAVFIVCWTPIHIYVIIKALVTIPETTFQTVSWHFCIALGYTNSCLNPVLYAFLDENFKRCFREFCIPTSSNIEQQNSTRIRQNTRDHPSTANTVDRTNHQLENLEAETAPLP
Sphingosine 1-phosphate receptor 1, sequence (P21453 whole entry): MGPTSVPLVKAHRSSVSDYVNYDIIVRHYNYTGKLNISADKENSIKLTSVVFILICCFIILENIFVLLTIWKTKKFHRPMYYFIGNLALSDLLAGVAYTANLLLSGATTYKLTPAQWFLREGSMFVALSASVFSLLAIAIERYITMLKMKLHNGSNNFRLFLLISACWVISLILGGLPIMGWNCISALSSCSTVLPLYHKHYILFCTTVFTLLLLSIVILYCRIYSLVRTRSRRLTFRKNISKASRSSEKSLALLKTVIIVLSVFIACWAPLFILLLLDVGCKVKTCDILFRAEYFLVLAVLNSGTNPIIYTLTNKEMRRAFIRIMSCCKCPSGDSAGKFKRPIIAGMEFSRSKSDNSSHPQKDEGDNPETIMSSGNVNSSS
Intestinal-type alkaline phosphatase (Mus musculus, UniProt P24822), sequence (P24822 whole entry): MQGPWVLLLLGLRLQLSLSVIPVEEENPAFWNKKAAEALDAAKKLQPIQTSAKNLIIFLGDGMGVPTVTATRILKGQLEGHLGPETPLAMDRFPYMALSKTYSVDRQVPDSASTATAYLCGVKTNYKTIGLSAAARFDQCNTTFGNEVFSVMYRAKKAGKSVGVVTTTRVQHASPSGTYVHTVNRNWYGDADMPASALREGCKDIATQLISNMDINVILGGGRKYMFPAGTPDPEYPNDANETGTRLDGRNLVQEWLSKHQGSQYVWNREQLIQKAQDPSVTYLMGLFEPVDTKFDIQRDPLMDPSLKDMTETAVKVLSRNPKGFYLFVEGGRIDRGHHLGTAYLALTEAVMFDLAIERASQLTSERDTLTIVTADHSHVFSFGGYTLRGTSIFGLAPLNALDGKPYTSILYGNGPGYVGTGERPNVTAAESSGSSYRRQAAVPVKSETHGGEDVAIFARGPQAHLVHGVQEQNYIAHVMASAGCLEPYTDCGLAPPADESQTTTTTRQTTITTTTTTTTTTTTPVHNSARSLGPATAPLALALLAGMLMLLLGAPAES
Intestinal-type alkaline phosphatase (Homo sapiens, UniProt P09923), sequence (P09923 whole entry): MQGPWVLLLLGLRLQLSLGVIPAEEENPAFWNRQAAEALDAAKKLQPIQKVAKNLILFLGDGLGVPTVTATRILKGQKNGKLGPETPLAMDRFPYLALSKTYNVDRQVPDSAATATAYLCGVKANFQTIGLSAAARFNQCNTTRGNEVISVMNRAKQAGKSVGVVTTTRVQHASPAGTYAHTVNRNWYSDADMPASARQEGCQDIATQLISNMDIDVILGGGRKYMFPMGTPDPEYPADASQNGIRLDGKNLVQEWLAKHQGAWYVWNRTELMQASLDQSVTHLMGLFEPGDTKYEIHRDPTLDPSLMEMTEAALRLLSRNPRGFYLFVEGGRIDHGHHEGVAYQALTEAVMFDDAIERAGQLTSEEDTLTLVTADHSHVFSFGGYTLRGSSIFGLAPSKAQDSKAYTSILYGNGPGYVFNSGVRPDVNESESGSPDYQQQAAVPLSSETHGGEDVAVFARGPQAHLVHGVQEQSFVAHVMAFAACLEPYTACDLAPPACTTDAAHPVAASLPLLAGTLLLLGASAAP

- EC50 [1]: 13.1 µM (inactive)
Structure (SMILES): Cc1ccc2[nH]c(=O)c(CN(CCC(C)C)C(=O)c3ccccn3)cc2c1

- IC50 [2]: 9.42 µM (active)
- IC50 [3]: 2.34 µM (active)
- IC50 [4]: 17.1 µM (active)
Structure (SMILES): NS(=O)(=O)c1cccc(NC(=O)CSc2nnc(-c3ccncc3)n2C2CC2)c1

- EC50 [5]: > 49.8 µM (not active)
- EC50 [6]: > 49.8 µM (inactive)
Structure (SMILES): Cc1cc(C)nc(N/N=C/c2ccc(N3CCOCC3)cc2)n1

- EC50 (Mu-type opioid receptor [7]): > 32 µM (inactive)
- IC50 [8]: > 32 µM (inactive)
- EC50 [9]: > 10 µM (inactive)
- IC50 (Mu-type opioid receptor [10]): > 32 µM (inactive)
- EC50 [11]: > 32 µM (inactive)
- IC50 [12]: > 32 µM (inactive)
- EC50 [13]: 7.66 µM (active)
Structure (SMILES): O=C(CSc1nnc(-c2ccccn2)n1Cc1ccco1)c1ccc(Cl)cc1
